Measured values from ChEMBL document CHEMBL1201862, “PubChem BioAssay data set” (2004).
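The compound was tested at five concentrations on cells cultured in 96-well plates, with a 48-hour exposure period. Abbreviation: GI50, concentration required for 50% inhibition of growth.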 The source made the active and inactive calls. Cut-off read from the data, not from the text of the source: active = GI50 up to about 1.1 µM and inactive = higher.

Columns and labels:
Test in all cases: DTP human tumour cell line panel, 48 h
NCI/ADR-RES = test system: NCI/ADR-RES
BT-549 = test system: BT-549
LOX IMVI = test system: LOX IMVI
KM12 = test system: KM12
SK-OV-3 = test system: SK-OV-3
NCI-H23 = test system: NCI-H23
SNB-19 = test system: SNB-19
CAKI-1 = test system: CAKI-1
ACHN = test system: ACHN
EKVX = test system: EKVX
A549 = test system: A549
OVCAR-8 = test system: OVCAR-8
Hs-578T = test system: Hs-578T
MDA-N = test system: MDA-N
COLO 205 = test system: COLO 205
HOP-62 = test system: HOP-62
DU-145 = test system: DU-145
SK-MEL-5 = test system: SK-MEL-5
SF-539 = test system: SF-539
SR = test system: SR

Measured: GI50

c1ccc(CCNc2ccccn2)nc1
inactive: NCI/ADR-RES > 100 µM | BT-549 > 100 µM | LOX IMVI > 100 µM | KM12 > 100 µM | SK-OV-3 > 100 µM | NCI-H23 > 100 µM | SNB-19 > 100 µM | CAKI-1 > 100 µM | ACHN > 100 µM | EKVX > 100 µM | A549 > 100 µM | OVCAR-8 > 100 µM | Hs-578T > 100 µM | MDA-N > 100 µM | COLO 205 > 100 µM | HOP-62 > 100 µM | DU-145 > 100 µM | SK-MEL-5 > 100 µM

COc1ccc(-[n+]2nc(S(=O)(=O)O)c(/C=C/c3ccc(N(C)C)cc3)cc2C#N)cc1
inactive: NCI/ADR-RES > 100 µM | BT-549 > 100 µM | LOX IMVI > 100 µM | KM12 > 100 µM | SK-OV-3 > 100 µM | NCI-H23 > 100 µM | SNB-19 > 100 µM | CAKI-1 > 100 µM | ACHN > 100 µM | EKVX > 100 µM | A549 > 100 µM | OVCAR-8 > 100 µM | Hs-578T > 100 µM | COLO 205 > 100 µM | HOP-62 > 100 µM | SF-539 > 100 µM | DU-145 > 100 µM | SK-MEL-5 > 100 µM

CCOC(=O)c1ccc(C(=O)C(C(C)=O)C(=O)OC(C)(C)C)n1C (stereo not given)
inactive: NCI/ADR-RES > 100 µM | BT-549 > 100 µM | LOX IMVI > 100 µM | KM12 > 100 µM | SK-OV-3 > 100 µM | NCI-H23 > 100 µM | SNB-19 > 100 µM | CAKI-1 > 100 µM | ACHN > 100 µM | EKVX > 100 µM | A549 > 100 µM | OVCAR-8 > 100 µM | Hs-578T > 100 µM | MDA-N > 100 µM | COLO 205 > 100 µM | SR 57.4 µM | HOP-62 > 100 µM | DU-145 > 100 µM | SK-MEL-5 > 100 µM

O=C1CC(=O)NC(NN2C(=O)/C(=C/C(=O)c3ccco3)N=C2c2ccccc2)=N1
inactive: NCI/ADR-RES 41.1 µM | BT-549 36.6 µM | KM12 30.5 µM | SK-OV-3 > 100 µM | NCI-H23 > 100 µM | CAKI-1 > 100 µM | ACHN > 100 µM | A549 > 100 µM | OVCAR-8 44.5 µM | Hs-578T 27.7 µM | MDA-N 77.3 µM | COLO 205 > 100 µM | SR 14.6 µM | HOP-62 > 100 µM | SF-539 44.1 µM | DU-145 > 100 µM

Cc1cc2c(=O)[nH]nc(N)c2c(N)n1
inactive: NCI/ADR-RES > 100 µM | BT-549 > 100 µM | LOX IMVI > 100 µM | KM12 > 100 µM | SK-OV-3 > 100 µM | NCI-H23 > 100 µM | SNB-19 > 100 µM | CAKI-1 > 100 µM | ACHN > 100 µM | EKVX > 100 µM | A549 > 100 µM | OVCAR-8 > 100 µM | Hs-578T > 100 µM | MDA-N > 100 µM | COLO 205 > 100 µM | SR > 100 µM | HOP-62 > 100 µM | DU-145 > 100 µM | SK-MEL-5 > 100 µM

O=C1c2ccccc2-c2c1c(-c1cccc(Br)c1)nc1ccc3ccccc3c21
inactive: NCI/ADR-RES > 100 µM | BT-549 > 100 µM | LOX IMVI > 100 µM | KM12 > 100 µM | SK-OV-3 > 100 µM | NCI-H23 > 100 µM | SNB-19 > 100 µM | CAKI-1 > 100 µM | ACHN > 100 µM | EKVX > 100 µM | A549 > 100 µM | OVCAR-8 > 100 µM | Hs-578T 46.9 µM | MDA-N > 100 µM | COLO 205 > 100 µM | HOP-62 > 100 µM | SF-539 > 100 µM | DU-145 > 100 µM

C=CCNC(=S)N/C=C(/C(C)=O)C(=O)Nc1ccccc1C
inactive: NCI/ADR-RES > 100 µM | BT-549 > 100 µM | LOX IMVI > 100 µM | KM12 > 100 µM | SK-OV-3 > 100 µM | NCI-H23 > 100 µM | SNB-19 > 100 µM | CAKI-1 > 100 µM | ACHN > 100 µM | EKVX > 100 µM | A549 > 100 µM | OVCAR-8 > 100 µM | Hs-578T > 100 µM | MDA-N > 100 µM | COLO 205 > 100 µM | HOP-62 > 100 µM | SF-539 > 100 µM | DU-145 > 100 µM | SK-MEL-5 > 100 µM

CCOC(=O)c1ccc2c(c1)Cc1cc([N+](=O)[O-])ccc1-2
inactive: NCI/ADR-RES 25.1 µM | BT-549 30.1 µM | LOX IMVI 41.2 µM | KM12 69.3 µM | SK-OV-3 29.6 µM | NCI-H23 32.4 µM | SNB-19 > 100 µM | CAKI-1 36.6 µM | ACHN 29.9 µM | EKVX 12.3 µM | A549 33.7 µM | OVCAR-8 42 µM | Hs-578T 48.9 µM | MDA-N 48 µM | COLO 205 23.2 µM | HOP-62 > 100 µM | SF-539 36.1 µM | DU-145 > 100 µM | SK-MEL-5 17.3 µM

O=C(Nc1ccccc1C(=O)O)C(=Cc1ccccc1O)NC(=O)c1ccccc1
inactive: NCI/ADR-RES > 100 µM | BT-549 > 100 µM | LOX IMVI 58.9 µM | KM12 > 100 µM | SK-OV-3 > 100 µM | NCI-H23 > 100 µM | SNB-19 > 100 µM | CAKI-1 > 100 µM | ACHN > 100 µM | EKVX > 100 µM | A549 > 100 µM | OVCAR-8 > 100 µM | Hs-578T > 100 µM | COLO 205 > 100 µM | SR > 100 µM | HOP-62 > 100 µM | SF-539 58.6 µM | DU-145 > 100 µM | SK-MEL-5 > 100 µM

COc1ccc(-c2nc(-c3cc4c(ccc5ccccc54)oc3=O)cs2)cc1
inactive: BT-549 > 100 µM | LOX IMVI > 100 µM | KM12 > 100 µM | SK-OV-3 > 100 µM | SNB-19 > 100 µM | CAKI-1 > 100 µM | ACHN > 100 µM | EKVX > 100 µM | A549 > 100 µM | Hs-578T > 100 µM | COLO 205 > 100 µM | SR > 100 µM | HOP-62 73.3 µM | SF-539 > 100 µM | DU-145 > 100 µM | SK-MEL-5 > 100 µM

CSc1ncnc2c1cnn2Cc1cnnn1COCC(O)CO (stereo not given)
inactive: NCI/ADR-RES > 100 µM | BT-549 > 100 µM | LOX IMVI > 100 µM | KM12 > 100 µM | SK-OV-3 > 100 µM | NCI-H23 > 100 µM | SNB-19 > 100 µM | CAKI-1 > 100 µM | ACHN > 100 µM | EKVX > 100 µM | A549 > 100 µM | OVCAR-8 > 100 µM | MDA-N > 100 µM | COLO 205 > 100 µM | SR > 100 µM | HOP-62 > 100 µM | SF-539 > 100 µM | DU-145 > 100 µM | SK-MEL-5 > 100 µM

COC(=O)C1=C(C)NC(C)=C(C(=O)OC)C1c1ccccc1NO
inactive: NCI/ADR-RES > 100 µM | BT-549 > 100 µM | LOX IMVI 40 µM | KM12 > 100 µM | SK-OV-3 > 100 µM | NCI-H23 > 100 µM | SNB-19 > 100 µM | CAKI-1 > 100 µM | ACHN > 100 µM | EKVX > 100 µM | A549 > 100 µM | OVCAR-8 > 100 µM | Hs-578T > 100 µM | COLO 205 > 100 µM | SR 28.4 µM | HOP-62 > 100 µM | SF-539 > 100 µM | DU-145 > 100 µM | SK-MEL-5 > 100 µM

Cc1cn(CCCCCCC2=NCCCN2)c(=O)[nH]c1=O
inactive: NCI/ADR-RES > 100 µM | BT-549 > 100 µM | LOX IMVI > 100 µM | KM12 > 100 µM | SK-OV-3 > 100 µM | NCI-H23 > 100 µM | SNB-19 > 100 µM | CAKI-1 > 100 µM | ACHN > 100 µM | EKVX > 100 µM | A549 > 100 µM | OVCAR-8 > 100 µM | Hs-578T > 100 µM | MDA-N > 100 µM | COLO 205 > 100 µM | HOP-62 > 100 µM | SF-539 > 100 µM | DU-145 > 100 µM | SK-MEL-5 > 100 µM

C/C=C1\C(=O)OC2CCN3CCC(COC(=O)C(C)(O)C(C)C1O)C23 (stereo not given)
inactive: NCI/ADR-RES > 100 µM | BT-549 > 100 µM | LOX IMVI > 100 µM | KM12 > 100 µM | SK-OV-3 > 100 µM | NCI-H23 > 100 µM | SNB-19 > 100 µM | CAKI-1 > 100 µM | ACHN > 100 µM | EKVX > 100 µM | A549 > 100 µM | OVCAR-8 > 100 µM | Hs-578T > 100 µM | MDA-N > 100 µM | COLO 205 > 100 µM | SF-539 > 100 µM | DU-145 > 100 µM | SK-MEL-5 > 100 µM

CC(C)(C)c1ccc(OCCOc2ccc(C(C)(C)C)cc2N)c(N)c1
inactive: NCI/ADR-RES 48.8 µM | BT-549 91 µM | LOX IMVI 27.8 µM | KM12 > 100 µM | SK-OV-3 > 100 µM | NCI-H23 27.6 µM | SNB-19 > 100 µM | CAKI-1 > 100 µM | ACHN 60.1 µM | EKVX > 100 µM | A549 26.2 µM | OVCAR-8 29.9 µM | Hs-578T 24.2 µM | COLO 205 > 100 µM | SR > 100 µM | HOP-62 > 100 µM | SF-539 > 100 µM | DU-145 > 100 µM | SK-MEL-5 > 100 µM
